pKd: −log10 of the molar value.
Target: T1, RING1B-BMI1 (Homo sapiens, UniProt Q99496)
T1 sequence (Q99496 1-336): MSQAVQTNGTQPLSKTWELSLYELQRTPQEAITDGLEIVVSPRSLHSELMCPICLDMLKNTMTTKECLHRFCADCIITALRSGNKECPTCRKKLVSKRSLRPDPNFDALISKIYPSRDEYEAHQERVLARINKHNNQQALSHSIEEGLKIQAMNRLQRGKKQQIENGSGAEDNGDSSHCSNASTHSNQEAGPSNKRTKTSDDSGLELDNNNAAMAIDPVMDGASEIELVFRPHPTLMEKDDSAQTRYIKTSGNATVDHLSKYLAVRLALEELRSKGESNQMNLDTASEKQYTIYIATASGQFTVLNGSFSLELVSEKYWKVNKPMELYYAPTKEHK
T1 sequence (P35226 1-326 partner): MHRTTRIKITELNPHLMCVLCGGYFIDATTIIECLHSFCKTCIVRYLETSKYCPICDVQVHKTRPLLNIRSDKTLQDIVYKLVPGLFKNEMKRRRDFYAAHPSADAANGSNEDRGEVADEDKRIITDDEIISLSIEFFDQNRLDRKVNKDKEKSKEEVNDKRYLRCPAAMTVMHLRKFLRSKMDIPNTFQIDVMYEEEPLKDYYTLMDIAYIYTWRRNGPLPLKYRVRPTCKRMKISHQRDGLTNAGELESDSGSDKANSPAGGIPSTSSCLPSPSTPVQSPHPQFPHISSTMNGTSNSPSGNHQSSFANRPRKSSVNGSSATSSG
Experiment: KD classes of Table A (direct binding to Ring1B-Bmi1)
Details: class given in Table A
Experimental: Experiments were conducted during development of embodiments herein to develop small molecule inhibitors of PRC1 by targeting the Ring1B-BMI1 E3 ligase. These compounds bind directly to Ring1B-Bmi1 with low-micromolar affinity and inhibit PRC1 in vitro and in cells. […] Experiments were conducted during development of embodiments herein to test COMPOUND 1 in leukemia stem cell models represented by TEX cells (Ref. 22; herein incorporated by reference in its entirety) and M9-ENL1 cells (Ref. 23; herein incorporated by reference in its entirety). […] In some embodiments, COMPOUND 1 and COMPOUND 1 analogs are find use as agents in targeting leukemia and other cancer stem cells.
The compounds listed in Table A have been synthesized and/or tested for activity in inhibiting activity of PRC1 complex, and are within the scope herein.

pKd | SMILES
> 4.70 | COc1ccc2[nH]ccc2c1-c1c(C(=O)O)[nH]c(-c2cc(F)cc3[nH]ccc23)c1C(C)C [compound 244]
> 4.70 | Cc1cc2c(-c3c(C(=O)O)[nH]c(-c4cc(F)cc5[nH]ccc45)c3C(C)C)ccnc2[nH]1 [compound 207]
> 4.70 | CC(C)c1c(-c2cc(F)cc3[nH]ccc23)[nH]c(C(=O)O)c1-c1ccnc2[nH]c(-c3ccsc3)cc12 [compound 250]
> 4.70 | CC(C)c1c(-c2cc(F)cc3[nH]ccc23)[nH]c(C(=O)O)c1-c1cc(C(=O)NCC2CC2)cc2[nH]ccc12 [compound 199]
> 4.70 | CC(C)c1c(-c2cc(F)cc3[nH]ccc23)[nH]c(C(=O)O)c1-c1cccc2c1ccn2CS(N)(=O)=O [compound 263]
> 4.70 | CCn1ccc2cc(-c3[nH]c(C(=O)O)c(-c4c(Cl)ccc5[nH]ccc45)c3C(C)C)ccc21 [compound 184]
> 4.70 | CC(C)c1c(-c2cc(F)cc3[nH]ccc23)[nH]c(C(=O)O)c1-c1c(F)ccc2[nH]ccc12 [compound 243]
> 4.70 | CC(C)c1c(-c2cc(F)cc3[nH]ccc23)[nH]c(C(=O)O)c1-c1cccc2[nH]c(C(=O)Nc3nccs3)cc12 [compound 261]
> 4.70 | CC(C)c1c(-c2cc(F)cc3[nH]ccc23)[nH]c(C(=O)O)c1-c1c2cc[nH]c2cc2[nH]ccc12 [compound 269]
> 4.70 | COc1cnc2[nH]ccc2c1-c1c(C(=O)O)[nH]c(-c2cc(F)cc3[nH]ccc23)c1C(C)C [compound 247]
> 4.70 | CC(C)c1c(-c2cc(F)cc3[nH]ccc23)[nH]c(C(=O)O)c1-c1cccc2nc(NS(C)(=O)=O)sc12 [compound 232]
> 4.70 | CC(C)Cc1cc2c(-c3c(C(=O)O)[nH]c(-c4cc(F)cc5[nH]ccc45)c3C(C)C)cccc2[nH]1 [compound 202]
> 4.70 | CC(C)c1c(-c2cc(F)cc3[nH]ccc23)[nH]c(C(=O)O)c1-c1cccc2[nH]c(-c3nccs3)cc12 [compound 224]
> 4.70 | CC(C)c1c(-c2cc(F)cc3[nH]ccc23)[nH]c(C(=O)O)c1-c1ccnc2[nH]c(-c3cccc(Cl)c3)cc12 [compound 253]
> 4.70 | CC(C)c1c(-c2cc(F)cc3[nH]ccc23)[nH]c(C(=O)O)c1-c1cc(OC2COC2)cc2[nH]ccc12 [compound 236]
> 4.70 | CCc1c[nH]c2cc(OC)cc(-c3c(C(=O)O)[nH]c(-c4cc(F)cc5[nH]ccc45)c3C(C)C)c12 [compound 186]
> 4.70 | CC(C)c1c(-c2cc(F)cc3[nH]ccc23)[nH]c(C(=O)O)c1-c1cccc2[nH]c(CS(C)(=O)=O)cc12 [compound 230]
> 4.70 | CSCc1ccc2[nH]ccc2c1-c1c(C(=O)O)[nH]c(-c2cc(F)cc3[nH]ccc23)c1C(C)C [compound 238]
> 4.70 | CC(C)c1c(-c2cc(F)cc3[nH]ccc23)[nH]c(C(=O)O)c1-c1cccc2[nH]c(-c3nnn[nH]3)cc12 [compound 194]

More lines, now with the values behind:

SMILES | pKd
CC(C)c1c(-c2cc(Cl)cc3[nH]ccc23)[nH]c(C(=O)O)c1-c1c(Cl)ccc2[nH]ccc12 [compound 13] | > 4.70
COc1ccc(-c2c(C(=O)O)[nH]c(-c3cc(F)cc4[nH]ccc34)c2C(C)C)c(Cl)c1 [compound 56] | > 4.70
COc1ccc(-c2c(C(=O)O)[nH]c(-c3cccc4[nH]ccc34)c2C(C)C)c(Cl)c1 [compound 19] | > 4.70
Cc1ccccc1-c1ccc(C(=O)O)[nH]1 [compound 154] | < 4.00
CCOC(=O)c1[nH]c(-c2c(OC)cccc2OC)c(CC)c1-c1ccc(OC)cc1Cl [compound 164] | < 4.00
CC(C)c1c(-c2cc(F)cc3[nH]ccc23)[nH]c(C(=O)O)c1-c1cccc2c1ccn2CCO [compound 44] | > 4.70
CC(C)c1c(-c2cccc3[nH]c(C(=O)O)cc23)[nH]c(C(=O)O)c1-c1c(Cl)ccc2[nH]ccc12 [compound 49] | > 4.70
CCc1c(-c2ccccc2O)[nH]c(C(=O)O)c1-c1ccccc1Cl [compound 107] | < 4.00
COc1cc(-c2c(C(=O)O)[nH]c(-c3cc(F)cc4[nH]ccc34)c2C(C)C)c2c(C)c[nH]c2c1 [compound 183] | > 4.70
CCc1c(-c2cccc3[nH]ccc23)[nH]c(C(=O)O)c1CCc1ccccc1 [compound 90] | 4.00 to 4.30
O=C(O)c1ccc(-c2ccc(Cl)cc2)[nH]1 [compound 143] | < 4.00
CCc1c(-c2cccc3c2ccn3C)[nH]c(C(=O)O)c1-c1ccccc1 [compound 101] | 4.00 to 4.30
COc1cc(OC)cc(-c2ccc(C(=O)O)[nH]2)c1 [compound 133] | < 4.00
CCc1c(-c2cccc3[nH]ccc23)[nH]c(C(=O)O)c1Cc1ccccc1 [compound 79] | 4.30 to 4.70
CCc1c(-c2cccc3[nH]ccc23)[nH]c(C(=O)O)c1-c1ccccc1C [compound 83] | 4.30 to 4.70
CCc1c(-c2cccc3[nH]ccc23)[nH]c(C(=O)O)c1-c1c(Cl)cc(OC)c2[nH]ccc12 [compound 18] | > 4.70
CC(C)c1c(-c2cccc3[nH]ccc23)[nH]c(C(=O)O)c1-c1cccc2[nH]ccc12 [compound 33] | > 4.70
O=C(O)c1ccc(-c2cccc(OCc3ccccc3)c2)[nH]1 [compound 135] | < 4.00
CC(C)c1c(-c2cc(F)cc3[nH]ccc23)[nH]c(C(=O)O)c1-c1cc(OC(F)(F)F)cc2[nH]ccc12 [compound 48] | > 4.70
COc1ccc(OC)c(-c2ccc(C(=O)O)[nH]2)c1 [compound 155] | < 4.00
CCc1cc(-c2[nH]c(C(=O)O)c(-c3c(Cl)ccc4[nH]ccc34)c2C(C)C)c2cc[nH]c2c1 [compound 9] | > 4.70
CC(C)c1c(-c2cc(F)cc3[nH]ccc23)[nH]c(C(=O)O)c1-c1c(Cl)ccc2[nH]ccc12 [compound 14] | > 4.70
CCc1c(-c2cccc3[nH]ccc23)[nH]c(C(=O)O)c1-c1cccc(OC)c1 [compound 85] | 4.30 to 4.70

SMILES | pKd
CCc1c(-c2cccc3[nH]ccc23)[nH]c(C(=O)O)c1-c1cccc(F)c1 [compound 86] | 4.30 to 4.70
CCc1c(-c2cccc3[nH]ccc23)[nH]c(C(=O)O)c1-c1cccc2[nH]ccc12 [compound 20] | > 4.70
O=C(O)c1ccc(-c2cccc3c2ccn3C2CC2)[nH]1 [compound 119] | < 4.00
C#CCCCCC(=O)NCCCCCC(=O)NCCc1c[nH]c2cc(F)cc(-c3[nH]c(C(=O)O)c(-c4c(Cl)ccc5[nH]ccc45)c3C(C)C)c12 [compound 68] | > 4.70
CCc1c(-c2cccc3[nH]ccc23)[nH]c(C(=O)O)c1-c1ccc(OC)cc1Cl [compound 24] | > 4.70
CCc1c(-c2c(OC)cccc2OC)[nH]c(C(=O)O)c1-c1ccc(OC)cc1Cl [compound 104] | < 4.00
CC(C)c1c(-c2cc(F)cc3[nH]ccc23)[nH]c(C(=O)O)c1-c1cc(C(F)(F)F)cc2[nH]ccc12 [compound 43] | > 4.70
CCc1cccc(-c2ccc(C(=O)O)[nH]2)c1 [compound 129] | < 4.00
CCc1c(-c2cccc3c2ccn3C)[nH]c(C(=O)O)c1-c1ccc(F)c(C)c1 [compound 109] | < 4.00
Cn1ccc2c(-c3ccc(C(=O)O)[nH]3)cccc21 [compound 127] | < 4.00
O=C(O)c1ccc(-c2cccc(Oc3ccccc3)c2)[nH]1 [compound 139] | < 4.00
CCc1c(C(=O)O)[nH]c(-c2cccc3c2ccn3C)c1CC [compound 111] | < 4.00
CC(C)c1c(-c2cc(F)cc3[nH]cc(CCO)c23)[nH]c(C(=O)O)c1-c1c(Cl)ccc2[nH]ccc12 [compound 28] | > 4.70
O=C(O)c1cc(-c2ccccc2)c(-c2cccc3[nH]ccc23)[nH]1 [compound 118] | < 4.00
CCCC(=O)NCCn1ccc2c(-c3c(C(=O)O)[nH]c(-c4cc(F)cc5[nH]ccc45)c3C(C)C)cc(OC)cc21 [compound 180] | > 4.70
CCn1ccc2c(-c3ccc(C(=O)O)[nH]3)cccc21 [compound 122] | < 4.00
CC(C)c1c(-c2cc(F)cc3[nH]ccc23)[nH]c(C(=O)O)c1-c1cccc2[nH]c(C(=O)O)cc12 [compound 47] | > 4.70
Nc1ccccc1-c1ccc(C(=O)O)[nH]1 [compound 147] | < 4.00
CCc1c(-c2cccc3[nH]ncc23)[nH]c(C(=O)O)c1-c1ccc(OC)cc1Cl [compound 91] | 4.00 to 4.30
CC(C)c1c(-c2cc(F)cc3[nH]cc(CCNC(=O)CCCCCNC(=O)c4ccc5c(c4)C(=O)OC54c5ccc(O)cc5Oc5cc(O)ccc54)c23)[nH]c(C(=O)O)c1-c1c(Cl)ccc2[nH]ccc12 [compound 70] | > 4.70
CC(C)c1c(-c2cc(O)cc3[nH]ccc23)[nH]c(C(=O)O)c1-c1c(Cl)ccc2[nH]ccc12 [compound 12] | > 4.70
CCOc1cc(-c2c(C(=O)O)[nH]c(-c3cc(F)cc4[nH]ccc34)c2C(C)C)c2cc[nH]c2c1 [compound 42] | > 4.70

Reference: patent US12466813B2, “PRC1 inhibitors and methods of treatment therewith” (The Regents of the University of Michigan, priority 2018, dated 2025)
